In brackets after ≈: the same amount, converted by molar mass.
Tests used:
[1] = system: Flu A H3N2 Wisconsin 67/2005; assay: microbe, parasite or virus in culture; format: cell-based; details: Influenza A virus, H3N2, MDCK, read-out: Control EC50
MDCK cell line = assay: cells; format: cell-based; details: for Control IC50: ribavirin control, with Flu A H5N1

## NC(=O)c1ncn([C@@H]2O[C@H](CO)[C@@H](O)[C@H]2O)n1 [RIBAVARIN, Ribavirin]
[1]
  EC50: 1.9 µg/mL (≈ 7.78 µM)
MDCK cell line; Canis lupus familiaris, MDCK, read-out: Control IC50
  IC50: > 320 µg/mL
MDCK cell line; Neutral Red
  Control IC50: >320 µg/mL
MDCK cell line; Visual
  Control IC50: >320 µg/mL
